Experimental data as given in patent publication US11970505B1, “Pyridino-2,16-dioxapentacyclo[7.7.5.01,21.03,8.010,15]henicosa3(8),10,12,14-tetraene-7,20-dione as an antimicrobial compound” (KING FAISAL UNIVERSITY, priority 2023, dated 2024).

Legend:
Assay type in all cases: cell-based
Conditions in all cases: after 10, 20, 40 and 60 minutes at all dilutions 1:100, 1:200, 1:400, and 1:800
Staphylococcus aureus = assay: Antimicrobial activity by agar dilution, St. Aereus
Procedure: (§1) The antibacterial properties of the synthesized compound (pyridino-2,16-dioxapentacyclo[7.7.5.0^1,21.0^3,8.0^10,15]henicosa3(8),10,12,14-tetraene-7,20-dione) were studied by the method of agar dilution. Test solutions of each compound was prepared in concentration of 1% using dimethylformamide as a solvent. Then they were diluted in physiological solution to obtain the final experimental dilutions of 1:100, 1:200, 1:400, and 1:800. The effect of these substances were compared with furacillin in a controllable study. The testing microbes used were gram positive bacteria Staphylococcus aureus, gram negative bacteria Pseudomonas aeruginosa, Escherichia coli, and Candida albicans fungus. The experiments used for this survey were meat-pentonlu agar (EPA) for cultivation of bacteria and Saburo environment for fungi. Each experiment used 1 mL of test solution on each plate for 500 minutes. Two drops of emulsified with microbes feel were added. All experimental samples were taken from the agar after 10, 20, 40, 60 minutes in the environment on the basis of Patrk planted. Bacteria were cultivated at a temperature of 37° C. for 1 day and the mushroom was kept in a thermostat for […] at a temperature of 28° C. Then results were checked. Those of control and the antimicrobial activity for the synthesized compounds are listed in Table 1 below, with furacillin serving as a reference.

Escherichia coli = assay: Antimicrobial activity by agar dilution, E. Coli
Procedure: as §1

Pseudomonas aeruginosa = assay: Antimicrobial activity by agar dilution, Ps. aeruginosa
Procedure: as §1

Candida albicans = assay: Antimicrobial activity by agar dilution, Candida albicans
Procedure: as §1

O=C1CCCC2=C1C1c3cccnc3OC3(CCCC(=O)C13)O2 (stereo not shown) [pyridino-2,16-dioxapentacyclo[7.7.5.0^1,21.0^3,8.0^10,15]henicosa3(8),10,12,14-tetraene-7,20-dione]
higher inhibition activity: inhibition activity compared with Furacilin, Staphylococcus aureus (Staphylococcus aureus) | inhibition activity compared with Furacilin, Escherichia coli (Escherichia coli) | inhibition activity compared with Furacilin, Pseudomonas aeruginosa (Pseudomonas aeruginosa) | inhibition activity compared with Furacilin, Candida albicans (Candida albicans)
